Data from patent US8945397B2, “Methods of inhibiting cyanobacteria growth by administering gramine derivatives” (priority 2012, dated 2015).
Values after ≈ are worked out from the molar mass of the structure shown. “Also recorded” adds a separate entry of the source.

Key:
[1] = test system: M. Aeruginosa; experiment: Liquid culture optical absorption assay (OD600) of M. aeruginosa growth, 15 days; assay type: cell-based, Microcystis aeruginosa; conditions: for OD600 Measured at Day 15 (Starting OD600 at Day 0 is 0.100): 0.5 mg/L compound, liquid culture, control 2.83; for Inhibition of M. aeruginosa growth in words (liquid culture): 0.5 mg/L, Table 2 and FIG. 3
Method: To quantitatively measure M. Aeruginosa cell growth in responding to various gamine compounds, cell densities were determined by an optical absorption assay as measured by a spectrophotometer (Nanodrop 2000, Thermo Scientific). In the optical absorption assay, the absorbance of radiation (light) is measured as a function of frequency (wavelength). For this optical absorption assay, the algal cell density was determined at 600 nm wavelength. Equal amount of starting cells (optical density at wavelength 600 nm, OD600, was at 0.100 on Day 0) were placed in freshwater culture for 15 days of growth. After 15 days, the algae cell suspension is pipetted into a cuvette and placed within the spectrophotometer for the optical absorption assay.
There is a clear and distinct decrease in M. Aeruginosa algae growth when administered with 5,6-dichlogramine (Compound No. 9) and with 5,6,7-trichlorogramine (Compound No. 12) compared to M. Aeruginosa algae growth in control samples.

[2] = test system: M. Aeruginosa; conditions: according to the Hong articles; cited from earlier work
[3] = test system: M. aeruginosa cyanobacterium; conditions: U.S. Pat. No. 7,612,049; cited from earlier work
[4] = test system: M. Aeruginosa; experiment: Effective potency duration test in 1 L tap fresh water; assay type: cell-based, Microcystis aeruginosa; conditions: about 0.05 mg/L; for OD600 after 180 days / OD600 after 15 days of M. aeruginosa growth: 1 L tap fresh water; for OD600 after 15 days of M. aeruginosa growth: unadministered control 0.119; for duration of effectiveness after administration: single administration
Method: Both 5,6-dichlorogramine and 5,6,7-trichlorogramine are not only potent M. aeruginosa growth inhibitors, but they are effective inhibitors for a long period of time. In an experiment to test the effective potency duration of the compound, an equal amount of M. aeruginosa was grown in each of two containers, each containing about 1 L of fresh water from an urban sink tap. One container was administered with about 0.05 mg/L of 5,6-dichlorogramine, and the control container was not administered with any compounds. After 15 days of M. aeruginosa growth, the OD600 measurement for the unadministered M. aeruginosa freshwater sample was 0.119. The unadministered M. aeruginosa freshwater sample was discarded after 15 days. In contrast, after 15 days of M. aeruginosa growth, the OD600 measurement for the 5,6-dichlorogramine administered freshwater sample was 0.003. After 180 days, the OD600 measurement for the M. aeruginosa freshwater sample administered with 5,6-dichlorogramine remained at 0.003.
In another experiment, an equal amount of M. aeruginosa was grown in each of two containers, each containing about 1 L of fresh water from an urban sink tap. One container was administered with about 0.05 mg/L of 5,6,7-trichlorogramine, and the control container was not administered with any compounds. After 15 days of M. aeruginosa growth, the OD600 measurement for the unadministered M. aeruginosa freshwater sample was 0.119. The unadministered M. aeruginosa freshwater sample was discarded after 15 days. In contrast, after 15 days of M. aeruginosa growth, the OD600 measurement for the 5,6,7-trichlrogramine administered freshwater sample was 0.003. After 180 days, the OD600 measurement for the M. aeruginosa freshwater sample administered with 5,6,7-trichlorogramine remained at 0.003.

[5] = test system: M. Aeruginosa; experiment: Optical absorption assay of M. aeruginosa growth at varying concentrations, 8 days, with LC50 calculation; assay type: cell-based, Microcystis aeruginosa; conditions: for OD600 as % of the corresponding OD600 measurement of the control sample: 8 days; for OD600 of M. aeruginosa after 8 days: start OD600 0.1, control about 2.4; for LC50: Microcystis aeruginosa, 192 h, read-out: Lethal Concentration 50 (LC50)
Method: (§1) Different concentrations of 5,6-dichlorogramine were administered to M. aeruginosa cells as indicated. M. aeruginosa cell density measurements were taken every 24 hours. […] During the first 3 days, the M. aeruginosa cell densities for the control sample and the 5,6-dichlorogramine samples were similar. But starting on day 4, there was larger differentiation in M. aeruginosa cell densities between the control samples and the 5,6-dichlorogramine administered samples. […] In contrast, the OD600 of M. aeruginosa after 8 days of exposure to 0.05 mg/L 5,6-dichlorogramine was about 0.9, only about 38% of the corresponding OD600 measurement of the control sample. The OD600 measurement for M. aeruginosa after 8 days of exposure to about 0.2 mg/L 5,6-dichlorogramine was about 0.6, only about 25% of the corresponding OD600 measurement of the control sample. The OD600 measurement for M. aeruginosa after 8 days of exposure to about 0.8 mg/L 5,6-dichlorogramine was about 0.3, only about 13% of the corresponding OD600 measurement of the control sample.
as §1, with “5,6,7-trichlorogramine” for “5,6-dichlorogramine”
LC50 is a common way to describe the median lethal concentration of an administered agent in a medium, such as air or water, needed to kill half of the organism population living within the medium. LC50 is a well-known method of describing the acute toxicity of an administered agent on the target organism population.
(§2) In FIG. 6, the optical density measurement (OD600) of the M. aeruginosa cells on day 8 was plotted against the administered 5,6-dichlorogramine concentration. […] Half of about 2.4 is about 1.2, and according to FIG. 6, the 1.2 optical density measurement corresponds to an approximately 0.03 mg/L 5,6-dichlorogramine concentration. Based on these calculations, the effective amount of 5,6-dichlorogramine to administer to control the growth and spread of M. aeruginosa algae in fresh water may be a 5,6-dichlorogramine concentration ranging between about 0.01 mg/L and about 0.05 mg/L, and may be more specifically about 0.03 mg/L.
as §2, with “7,” for “6,”, “(ODo)” for “(OD600)”, “5,6,7-trichlorogramine” for “5,6-dichlorogramine”

[6] = test system: M. aeruginosa cyanobacteria, isolate strain 2667; experiment: Petri dish screen of gramine compounds for M. aeruginosa growth inhibition; assay type: cell-based, Microcystis aeruginosa; conditions: about 0.5 mg/L compound in BG-11 medium, after 15 days, FIG. 2
Method: The screen tested the compounds on M. aeruginosa cyanobacteria, isolate strain 2667 from Culture Collection of Algae (CCA) at the University of Texas at Austin. For the initial screening test, the twelve compounds were each administered at different concentrations of: 0.5 mg/L, 1.0 mg/L, 2.0 mg/L, 4.0 mg/L, and 8.0 mg/L. The compounds were added to a freshwater culture medium (BG-11 Medium from the CCA, UTEX) in petri dishes. The petri dish plates were then incubated at about 22° C. in a lighted growth chamber with about 16-hr light and about 8-hr dark. M. aeruginosa algae growth in the petri dishes were examined and documented after 15 days of incubation.
M. aeruginosa cells were streaked out on BG-11 medium that contained about 0.5 mg/L of the indicated compound. […] The faint algae smears for petri dishes streaked with 5,6-dichlogramine show the original algae cells that had died in the petri dish. […] The faint algae smears for petri dishes streaked with 5,6,7-trichlogramine show the original algae cells that had died in the petri dish.

[7] = test system: Arabidopsis thaliana; experiment: Toxicity to Arabidopsis thaliana plants in petri dishes; assay type: in vivo; conditions: 8 mg/L in MS medium
Method: The effects of both compounds were tested on Arabidopsis thaliana, a small flowering plant that is widely used as an experimental model plant for laboratory studies. A. thaliana seeds were placed in petri dishes containing standard plant growth media with one gramine compound added (about 8 mg/L). For the control sample, the seeds were placed on the identical growth media without any gramine compound added. All petri dishes containing A. thaliana were kept in a lighted plant growth chamber at 22° C. with cycles of 16-hr light and 8-hr dark. Seed germination and seedling development were closely monitored and documented every 24 hours.
(§3) FIGS. 8a and 8b show images of A. thaliana plants after 8 days of plant growth, or 8 days after germination. The A. thaliana plants were grown in petri dishes filled with Murashige and Skoog medium (MS plant growth medium containing both macronutrients, micronutrients, and vitamins) purchased from Sigma (Cat #M5519)).
as §3, with “9a” for “8a”, “9b” for “8b”, “10” for “8”, “of” for “of plant”

[8] = test system: N. closterium algae; conditions: Li et al. 2009; cited from earlier work

SMILES: CN(C)Cc1c[nH]c2ccc(Br)cc12 [compound 2, 5-bromogramine]
- OD600 Measured at Day 15 (Starting OD600 at Day 0 is 0.100) [1]: 1.95
- Inhibition of M. aeruginosa growth in words (liquid culture) [1]: some inhibitory effects

SMILES: CN(C)Cc1c[nH]c2cccc(C#N)c12 [compound 11, 4-cyanogramine]
- OD600 Measured at Day 15 (Starting OD600 at Day 0 is 0.100) [1]: 2.50

SMILES: CN(C)Cc1c[nH]c2ccc(Cl)cc12 [Compound No. 1, 5-chlorogramine]
- OD600 Measured at Day 15 (Starting OD600 at Day 0 is 0.100) [1]: 1.89
- Inhibition of M. aeruginosa growth in words (liquid culture) [1]: some inhibitory effects

SMILES: CN(C)Cc1c[nH]c2ccccc12 [N,N-dimethyl-3-amino-methylindole]
- concentration needed to inhibit the growth of M. aeruginosa [2]: at least 8 mg/L

SMILES: COc1ccc2[nH]cc(CN(C)C)c2c1 [compound 3, 5-methoxygramine]
- OD600 Measured at Day 15 (Starting OD600 at Day 0 is 0.100) [1]: 2.45

SMILES: N[C@H]1C(O)O[C@H](CO)[C@@H](O)[C@@H]1O (some centres unmarked) [glucosamine]
- concentration to inhibit the growth of M. aeruginosa [3]: 10-50 ppm

SMILES: CN(C)Cc1c[nH]c2c(Cl)c(Cl)c(Cl)cc12 [Compound No. 12, 5,6,7-trichlorogramine]
- OD600 after 180 days [4]: 0.003
- OD600 after 15 days of M. aeruginosa growth [4]: 0.003
- duration of effectiveness after administration [4]: at least 180 days
- Inhibition of M. aeruginosa growth in words (liquid culture) [1]: significantly inhibit the growth
- OD600 as % of the corresponding OD600 measurement of the control sample ([5]; 0.05 mg/L): about 38%
- OD600 of M. aeruginosa after 8 days ([5]; 0.05 mg/L): about 0.9
- LC50 [5]: ~0.03 µg/mL (≈ 0.108 µM)
- OD600 as % of the corresponding OD600 measurement of the control sample ([5]; about 0.2 mg/L): about 25%
- OD600 of M. aeruginosa after 8 days ([5]; about 0.2 mg/L): about 0.6
- OD600 as % of the corresponding OD600 measurement of the control sample ([5]; about 0.8 mg/L): about 13%
- OD600 of M. aeruginosa after 8 days ([5]; about 0.8 mg/L): about 0.3
- M. aeruginosa growth in petri dishes [6]: no M. aeruginosa growth; also recorded: inhibited M. aeruginosa growth completely
- growth and development of A. thaliana versus control ([7]; 10 days after germination): no growth or developmental difference

SMILES: Cc1cccc2[nH]cc(CN(C)C)c12 [compound 4, 4-methylgramine]
- OD600 Measured at Day 15 (Starting OD600 at Day 0 is 0.100) [1]: 2.49

SMILES: CN(C)Cc1c[nH]c2ccc(C#N)cc12 [compound 5, 5-cyanogramine]
- OD600 Measured at Day 15 (Starting OD600 at Day 0 is 0.100) [1]: 2.32

SMILES: CN(C)Cc1c[nH]c2cc(Cl)c(Cl)cc12 [Compound No. 9, 5,6-dichlorogramine]
- OD600 after 180 days [4]: 0.003
- OD600 after 15 days of M. aeruginosa growth [4]: 0.003
- duration of effectiveness after administration [4]: at least 180 days
- Inhibition of M. aeruginosa growth in words (liquid culture) [1]: significantly inhibit the growth
- OD600 as % of the corresponding OD600 measurement of the control sample ([5]; 0.05 mg/L): about 38%
- OD600 of M. aeruginosa after 8 days ([5]; 0.05 mg/L): about 0.9
- LC50 [5]: ~0.03 µg/mL (≈ 0.123 µM)
- OD600 as % of the corresponding OD600 measurement of the control sample ([5]; about 0.2 mg/L): about 25%
- OD600 of M. aeruginosa after 8 days ([5]; about 0.2 mg/L): about 0.6
- OD600 as % of the corresponding OD600 measurement of the control sample ([5]; about 0.8 mg/L): about 13%
- OD600 of M. aeruginosa after 8 days ([5]; about 0.8 mg/L): about 0.3
- M. aeruginosa growth in petri dishes [6]: no M. aeruginosa growth; also recorded: inhibited M. aeruginosa growth completely
- growth and development of A. thaliana versus control ([7]; 8 days after germination): no growth or developmental difference
- inhibition of growth of saltwater N. closterium algae [8]: inhibit the growth

SMILES: CN(C)Cc1c[nH]c2cccc(OCc3ccccc3)c12 [compound 8, 4-benzyloxygramine]
- OD600 Measured at Day 15 (Starting OD600 at Day 0 is 0.100) [1]: 2.54

SMILES: CN(C)Cc1c[nH]c2cc(OCc3ccccc3)ccc12 [compound 7, 6-benzyloxygramine]
- OD600 Measured at Day 15 (Starting OD600 at Day 0 is 0.100) [1]: 2.12
- Inhibition of M. aeruginosa growth in words (liquid culture) [1]: some inhibitory effects

SMILES: COc1cccc2[nH]cc(CN(C)C)c12 [compound 10, 4-methoxygramine]
- OD600 Measured at Day 15 (Starting OD600 at Day 0 is 0.100) [1]: 2.66
